Laboratory results: ChEMBL document CHEMBL1201862, “PubChem BioAssay data set” (2004)
Activity calls are given as the source filed them. Cut-off read from the data, not from the text of the source, for most assays here: actives have a measured EC50 and inactives only a lower limit.

Tests used:
[1] = molecular target: T1, Cysteine protease ATG4B (Homo sapiens, UniProt Q9Y4P1); experiment: autophagin-1 cysteine protease inhibition – biochemical, fluorescence, set 2, dose response (AID 588584); type: functional
T1 sequence (Q9Y4P1 whole entry): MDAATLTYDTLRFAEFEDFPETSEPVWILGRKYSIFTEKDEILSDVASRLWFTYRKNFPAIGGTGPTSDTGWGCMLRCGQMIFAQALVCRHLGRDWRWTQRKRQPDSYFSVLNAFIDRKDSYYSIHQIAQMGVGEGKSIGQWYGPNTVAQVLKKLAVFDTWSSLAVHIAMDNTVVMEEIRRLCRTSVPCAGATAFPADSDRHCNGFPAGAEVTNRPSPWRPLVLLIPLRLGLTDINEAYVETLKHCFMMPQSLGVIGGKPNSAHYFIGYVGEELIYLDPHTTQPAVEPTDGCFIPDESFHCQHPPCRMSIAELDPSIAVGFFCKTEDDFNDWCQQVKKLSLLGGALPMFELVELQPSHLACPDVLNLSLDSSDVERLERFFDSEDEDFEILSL

[2] = tested on: BJ; experiment: BJ-TERT-LT-ST fibroblast viability loss – cell-based, RAS-independent, luminescence, dose response (AID 1935); type: functional; conditions: Homo sapiens;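 note: BJ fibroblasts immortalized with TERT plus LT and ST oncogenes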
[3] = molecular target: Phospholipase A2 (Homo sapiens, UniProt P04054); experiment: phospholipase A2 activity inhibition – biochemical, set 2, counter-screen for ATG4B inhibitor project, dose response (AID 588586); type: functional
[4] = tested on: BJ; experiment: cells; type: functional, cell-based; conditions: Homo sapiens
[5] = DRD fibroblast viability loss – cell-based, non-viral oncogenic, luminescence, dose response (AID 1934); type: functional; conditions: Homo sapiens
[6] = tested on: BJ; experiment: BJ-TERT fibroblast viability loss – cell-based, RAS-independent, luminescence, dose response (AID 1933); type: functional; conditions: Homo sapiens
[7] = tested on: Escherichia coli; experiment: microbe, parasite or virus in culture
[8] = tested on: Escherichia coli; experiment: microbe, parasite or virus in culture; remark: listed apart in the source
[9] = fluconazole-exposed Candida albicans growth modulators – fluorescence, retest, confirmation (AID 2467); type: functional, cell-based
[10] = molecular target: T2, Serine/threonine-protein phosphatase (Candida dubliniensis (strain CD36 / CBS 7987 / NCPF 3949 / NRRLY-17841) (Yeast), UniProt B9W6M3); experiment: blockers of CaCl2-induced CDRE-lacZ signaling – S. cerevisiae, luminescence, secondary, dose response (AID 2388); type: functional, cell-based;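 note: yeast reporter cells carrying a calcineurin-responsive lacZ construct stimulated with calcium chloride; luminescent beta-galactosidase reporter signal in whole cells rather than isolated phosphatase activity; potency for inhibition where a drop in reporter signal means calcineurin blockade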
T2 sequence (B9W6M3 whole entry): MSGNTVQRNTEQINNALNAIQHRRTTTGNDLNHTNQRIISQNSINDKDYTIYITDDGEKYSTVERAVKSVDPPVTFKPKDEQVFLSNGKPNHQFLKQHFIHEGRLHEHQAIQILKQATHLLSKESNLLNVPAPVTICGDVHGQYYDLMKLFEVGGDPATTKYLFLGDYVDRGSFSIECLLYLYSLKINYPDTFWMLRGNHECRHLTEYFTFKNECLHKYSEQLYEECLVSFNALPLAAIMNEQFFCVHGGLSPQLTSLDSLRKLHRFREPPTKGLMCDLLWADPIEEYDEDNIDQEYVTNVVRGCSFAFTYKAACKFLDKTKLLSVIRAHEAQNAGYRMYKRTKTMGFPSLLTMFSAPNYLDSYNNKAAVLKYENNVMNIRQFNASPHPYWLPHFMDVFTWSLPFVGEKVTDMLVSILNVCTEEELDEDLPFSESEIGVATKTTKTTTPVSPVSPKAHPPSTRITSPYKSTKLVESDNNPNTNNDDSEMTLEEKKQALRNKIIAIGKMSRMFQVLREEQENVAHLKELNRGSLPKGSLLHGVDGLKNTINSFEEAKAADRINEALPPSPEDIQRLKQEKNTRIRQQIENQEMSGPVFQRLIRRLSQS

[11] = tested on: INS1; experiment: INS-1E survival protection against cytokine death – cell-based, luminescence, retest, dose response (AID 449756); type: functional; conditions: Rattus norvegicus;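 note: cell death triggered by IL-1 beta plus TNF-alpha plus IFN-gamma mixture; protective hits raise ATP signal compared with cytokine alone wells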
[12] = cells; type: functional, cell-based
[13] = cells; type: functional, cell-based; remark: listed apart in the source
[14] = molecular target: Cytochrome P450 2D6 (Homo sapiens, UniProt P10635);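 note: CYP2D6 member of a cytochrome P450 panel assay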
[15] = tested on: Streptococcus; experiment: GAS UMAA2166 growth inhibition – luminescence, BacTiterGlo, counter-screen for streptokinase expression inhibitor project, dose response (AID 1915); type: functional, organism-based;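 note: potency for reduction of bacterial viability or growth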
[16] = tested on: Streptococcus sp. 'group A'; experiment: Streptococcus pyogenes SK(-)GAS viability under kanamycin – luminescence, BacTiterGlo, confirmation, counter-screen for streptokinase expression inhibitor project, dose response (AID 1900); type: functional, organism-based
[17] = molecular target: T3, Microphthalmia-associated transcription factor (Homo sapiens, UniProt O75030); experiment: reducers of TRPM1 reporter luminescence, concentration series – cell-based, SK-MEL-5, cherry-picked, set 3, MITF inhibitor project, dose response (AID 493073); type: functional;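 note: SK-MEL-5 melanoma cells with luciferase driven by the MITF target TRPM1 promoter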
T3 sequence (O75030 whole entry): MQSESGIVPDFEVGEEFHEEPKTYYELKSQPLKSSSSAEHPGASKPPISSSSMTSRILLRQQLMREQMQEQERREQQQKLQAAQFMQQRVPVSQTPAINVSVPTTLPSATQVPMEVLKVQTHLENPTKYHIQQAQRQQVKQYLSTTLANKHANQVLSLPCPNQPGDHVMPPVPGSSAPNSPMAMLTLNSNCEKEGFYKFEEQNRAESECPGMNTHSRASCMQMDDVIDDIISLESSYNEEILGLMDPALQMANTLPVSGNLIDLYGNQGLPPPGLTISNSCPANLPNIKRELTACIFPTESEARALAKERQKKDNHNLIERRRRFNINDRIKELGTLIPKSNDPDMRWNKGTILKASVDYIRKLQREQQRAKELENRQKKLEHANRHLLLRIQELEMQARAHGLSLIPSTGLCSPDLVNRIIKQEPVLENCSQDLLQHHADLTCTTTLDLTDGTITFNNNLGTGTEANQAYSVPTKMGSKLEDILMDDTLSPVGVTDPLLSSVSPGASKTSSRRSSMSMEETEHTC

[18] = Luminescence Cell-Based Dose Retest to Confirm Inhibitors of Cancer Stem Cells. [Related pubchem assays (depositor defined):AID2717, AID2721]; type: functional; conditions: Homo sapiens
[19] = NIH-3T3 fibroblast cytotoxicity, dose response, cytotoxicity control, cell-based, fluorescence, Alamar Blue, secondary assay (AID 2327); type: functional;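 note: NIH-3T3 mouse fibroblasts cultured with fluconazole at 8 µg/mL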
[20] = molecular target: ATP-dependent molecular chaperone HSP82 (Candida albicans (strain WO-1) (Yeast), UniProt C4YTQ8); experiment: steroid-induced GRE reporter decrease in yeast – S. cerevisiae, luminescence, Hsp90 inhibitor project, dose response (AID 2400); type: functional, cell-based;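 note: beta-galactosidase luminescence from glucocorticoid response element reporter as proxy for Hsp90 function; inhibitor potency where signal loss means Hsp90 inhibition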
ATP-dependent molecular chaperone HSP82, sequence (C4YTQ8 whole entry): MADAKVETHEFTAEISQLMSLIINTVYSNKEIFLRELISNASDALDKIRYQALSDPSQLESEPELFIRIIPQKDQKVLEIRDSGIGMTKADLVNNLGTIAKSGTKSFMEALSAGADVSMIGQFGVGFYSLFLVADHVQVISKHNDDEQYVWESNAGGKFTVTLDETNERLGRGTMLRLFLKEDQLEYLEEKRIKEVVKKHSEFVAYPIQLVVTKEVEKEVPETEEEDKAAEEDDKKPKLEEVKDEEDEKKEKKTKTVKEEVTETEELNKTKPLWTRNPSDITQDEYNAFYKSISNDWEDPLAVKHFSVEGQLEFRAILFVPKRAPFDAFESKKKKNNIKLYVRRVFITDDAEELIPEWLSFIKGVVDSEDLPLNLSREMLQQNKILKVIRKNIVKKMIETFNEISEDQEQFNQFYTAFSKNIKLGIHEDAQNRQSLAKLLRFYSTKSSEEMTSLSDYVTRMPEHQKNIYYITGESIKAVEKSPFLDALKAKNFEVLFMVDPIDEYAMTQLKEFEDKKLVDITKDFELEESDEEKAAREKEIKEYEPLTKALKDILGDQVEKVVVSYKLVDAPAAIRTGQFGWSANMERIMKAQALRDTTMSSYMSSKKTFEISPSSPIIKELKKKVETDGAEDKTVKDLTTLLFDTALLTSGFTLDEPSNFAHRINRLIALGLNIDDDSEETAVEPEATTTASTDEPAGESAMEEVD

Phospholipase A2, sequence (P04054 whole entry): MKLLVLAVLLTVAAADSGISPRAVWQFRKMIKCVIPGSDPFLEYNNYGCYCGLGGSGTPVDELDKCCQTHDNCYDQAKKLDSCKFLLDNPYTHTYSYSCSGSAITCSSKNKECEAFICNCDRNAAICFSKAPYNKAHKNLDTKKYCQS
Cytochrome P450 2D6, sequence (P10635 whole entry): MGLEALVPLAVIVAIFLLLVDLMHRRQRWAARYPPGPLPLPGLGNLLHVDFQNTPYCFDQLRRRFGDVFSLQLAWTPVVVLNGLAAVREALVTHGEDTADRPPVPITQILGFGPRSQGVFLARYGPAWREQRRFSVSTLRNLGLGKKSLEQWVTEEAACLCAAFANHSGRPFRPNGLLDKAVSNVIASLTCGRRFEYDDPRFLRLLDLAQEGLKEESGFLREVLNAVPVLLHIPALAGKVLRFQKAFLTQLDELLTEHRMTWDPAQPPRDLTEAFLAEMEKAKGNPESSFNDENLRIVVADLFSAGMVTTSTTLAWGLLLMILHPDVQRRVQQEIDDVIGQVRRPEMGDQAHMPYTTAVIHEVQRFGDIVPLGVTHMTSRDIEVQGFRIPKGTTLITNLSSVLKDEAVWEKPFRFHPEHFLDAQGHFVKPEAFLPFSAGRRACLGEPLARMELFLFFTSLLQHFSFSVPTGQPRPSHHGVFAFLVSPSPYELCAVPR

Structure (SMILES): CC1=Nc2cc(C(=O)NCc3ccco3)ccc2Sc2ccc(C)cc21
- IC50 [1]: 77.5 µM (inactive)
- EC50 [2]: 1.95 µM (active)
- IC50 [3]: 74.1 µM (inactive)
- EC50 [4]: 2.76 µM (active)
- EC50 [5]: 2.73 µM (inconclusive)
- EC50 [6]: 2.33 µM (inconclusive)

Structure (SMILES): COC(=O)c1c(NC(=O)C(=O)NCCCN2CCOCC2)sc2c1CCCC2
- AC50 [7]: 19.8 µM (active)

Structure (SMILES): CC(C)Cc1ccc(CN2CCCC(NC(=O)Cn3cnnn3)C2)cc1 (configuration not stated)
- AC50 [8]: 103 µM (active)

Structure (SMILES): Cc1c(Cl)c([N+](=O)[O-])nn1Cc1ccc(C(=O)N/N=C\c2cc(Cl)ccc2O)o1
- EC50 [9]: 0.754 µM (active)
- IC50 [1]: 21 µM (inactive)
- EC50 [10]: > 180 µM (inactive)
- AC50 [11]: 1.67 µM (active)
- EC50 [12]: 9.68 µM (active)
- EC50 [13]: 89 µM (active)
- AC50 [14]: 11.2 µM (inconclusive)
- EC50 [15]: 2.38 µM (active)
- EC50 [16]: 2.03 µM (active)
- AC50 [17]: 3.47 µM (active)
- AC50 [18]: 3.28 µM (active)
- IC50 [3]: 5.5 µM (active)
- EC50 [19]: > 160 µM (inactive)
- EC50 [20]: 29.5 µM (active)
